Measurements as given in ChEMBL document CHEMBL5050861 (2021).
≈ marks a conversion by molar mass, not a printed value.

Experiments:
[1] = Inhibition of recombinant mouse GALK1 using ATP as substrate incubated for 1 hr and measured by Kinase-Glo assay
[2] = Stability of compound in rat microsomes assessed as half-life; type: ADME, Microsome
[3] = Kinetic aqueous solubility of the compound; type: physicochemical; details: buffer; read-out: Kinetic_solubility

CC1=C(C(=O)NCc2ccc(CO)cc2)C(c2ccccc2Cl)N=C(Nc2nc3ccccc3o2)N1 (stereo unspecified)
IC50 ([1]; read-out: IC50): 15.3 µM | half-life [2]: 13.8 min | solubility kinetic [3]: < 1 µg/mL

CC1=C(C(=O)Nc2ccc(CN)cc2)C(c2ccccc2Cl)N=C(Nc2nc3ccccc3o2)N1 (stereo unspecified)
IC50 ([1]; read-out: IC50): 4.32 µM | half-life [2]: 72.5 min | solubility kinetic [3]: 10 µg/mL (≈ 20.5 µM)

CC1=C(C(=O)NCc2cn(C)cn2)[C@H](c2ccccc2Cl)N=C(Nc2nc3ccccc3o2)N1
IC50 ([1]; read-out: IC50): 4.32 µM | half-life [2]: 5.62 min | solubility kinetic [3]: 46.1 µg/mL (≈ 96.9 µM)

CC1=C(C(=O)Nc2nncs2)C2(CCOC2)N=C(Nc2nc3ccccc3o2)N1 (stereo unspecified)
IC50 [1]: Not Active | half-life [2]: > 30 min | solubility kinetic [3]: 37.9 µg/mL (≈ 92.1 µM)

COC(=O)c1cccc(CNC(=O)C2=C(C)NC(Nc3nc4ccccc4o3)=NC2c2ccccc2Cl)c1 (stereo unspecified)
IC50 ([1]; read-out: IC50): 7.69 µM | half-life [2]: 3.42 min | solubility kinetic [3]: < 1 µg/mL

CC1=C(C(=O)NCc2cnn(C)c2)C(c2ccccc2Cl)N=C(Nc2nc3cccc(N)c3o2)N1 (stereo unspecified)
IC50 ([1]; read-out: IC50): 3.43 µM | half-life [2]: > 30 min | solubility kinetic [3]: > 72 µg/mL

CC1=C(C(=O)Nc2ncc(CO)s2)C(c2ccccc2Cl)N=C(Nc2nc3ccccc3o2)N1 (stereo unspecified)
IC50 ([1]; read-out: IC50): 19.3 µM | half-life [2]: > 30 min | solubility kinetic [3]: < 1 µg/mL

CC1=C(C(=O)NCc2cnn(C)c2)C(c2ccc(C)cc2Cl)N=C(Nc2nc3cnccc3o2)N1 (stereo unspecified)
IC50 ([1]; read-out: IC50): 12.2 µM | half-life [2]: 5.12 min | solubility kinetic [3]: > 49 µg/mL

CC1=C(C(=O)Nc2nncs2)C(c2ccccc2C)N=C(Nc2nc3ccccc3o2)N1 (stereo unspecified)
IC50 ([1]; read-out: IC50): 21.7 µM | half-life [2]: > 30 min | solubility kinetic [3]: < 1 µg/mL

O=C1NCCC2=C1C(c1ccccc1Cl)N=C(Nc1nc3ccccc3o1)N2 (stereo unspecified)
IC50 ([1]; read-out: IC50): 21.7 µM | half-life [2]: 27.1 min | solubility kinetic [3]: < 1 µg/mL

CC1=C(C(=O)Nc2cc(C(=O)O)ccn2)C(c2ccc(C)cc2Cl)N=C(Nc2nc3cccc(N)c3o2)N1 (racemic)
IC50 ([1]; read-out: IC50): 1.72 µM | half-life [2]: > 30 min | solubility kinetic [3]: > 78 µg/mL

CNC(=O)c1ccnc(NC(=O)C2=C(C)NC(Nc3nc4ccccc4o3)=NC2c2ccccc2Cl)c1 (stereo unspecified)
IC50 ([1]; read-out: IC50): 10.9 µM | half-life [2]: > 30 min | solubility kinetic [3]: < 1 µg/mL

CC1=C(C(=O)Nc2nnc(-c3ccncc3)s2)C(c2ccccc2Cl)N=C(Nc2nc3ccccc3o2)N1 (stereo unspecified)
IC50 ([1]; read-out: IC50): 19.3 µM | half-life [2]: > 30 min | solubility kinetic [3]: < 1 µg/mL

O=C(Nc1nncs1)C1=C(c2cnccn2)NC(Nc2nc3ccccc3o2)=NC1c1ccccc1Cl (stereo unspecified)
IC50 ([1]; read-out: IC50): 21.7 µM | half-life [2]: > 30 min | solubility kinetic [3]: 2.1 µg/mL (≈ 3.96 µM)

CC1=C(C(=O)Nc2ccccc2F)C(c2ccccc2Cl)N=C(Nc2nc3ccccc3o2)N1 (stereo unspecified)
IC50 ([1]; read-out: IC50): 9.68 µM | half-life [2]: > 30 min | solubility kinetic [3]: < 1 µg/mL

CNC(=O)C1CC(=O)C2=C(C1)NC(Nc1nc3ccccc3o1)=NC2c1ccccc1Cl (stereo unspecified)
IC50 ([1]; read-out: IC50): 6.85 µM | half-life [2]: > 30 min | solubility kinetic [3]: < 1 µg/mL

CC1=C(C(=O)Nc2cc(C(=O)O)ccn2)C(c2ccccc2Cl)N=C(Nc2nc3cccc([N+](=O)[O-])c3o2)N1 (stereo unspecified)
IC50 ([1]; read-out: IC50): 38.5 µM | half-life [2]: > 30 min | solubility kinetic [3]: 7.3 µg/mL (≈ 13.3 µM)

CC1=C(C(=O)Nc2nncs2)C(c2n[nH]cc2Br)N=C(Nc2nc3ccccc3o2)N1 (stereo unspecified)
IC50 ([1]; read-out: IC50): 19.3 µM | half-life [2]: > 30 min | solubility kinetic [3]: 11.4 µg/mL (≈ 22.8 µM)

CC1=C(C(=O)Nc2nncs2)C(c2ncccc2Cl)N=C(Nc2nc3ccccc3o2)N1 (stereo unspecified)
IC50 ([1]; read-out: IC50): 19.3 µM | half-life [2]: > 30 min | solubility kinetic [3]: 10.6 µg/mL (≈ 22.7 µM)

CC1=C(C(=O)Nc2nncs2)C2(CCSCC2)N=C(Nc2nc3ccccc3o2)N1
IC50 ([1]; read-out: IC50): 24.3 µM | half-life [2]: > 30 min | solubility kinetic [3]: 3.5 µg/mL (≈ 7.93 µM)

CCn1cc(CNC(=O)C2=C(C)NC(Nc3nc4ccc(F)c(N)c4o3)=N[C@@H]2c2ccc(C)cc2Cl)cn1
IC50 ([1]; read-out: IC50): 10.9 µM | half-life [2]: 8.62 min | solubility kinetic [3]: < 1 µg/mL

CCn1cc(CNC(=O)C2=C(C)NC(Nc3nc4ccc(F)c(N)c4o3)=NC2c2ccc(Cl)cc2Cl)cn1 (stereo unspecified)
IC50 ([1]; read-out: IC50): 1.93 µM | half-life [2]: 6.79 min | solubility kinetic [3]: < 1 µg/mL

CCn1cc(CNC(=O)C2=C(C)NC(Nc3nc4cccc(N)c4o3)=NC2c2ccc(C)cc2Cl)cn1 (stereo unspecified)
IC50 ([1]; read-out: IC50): 3.06 µM | half-life [2]: 11.3 min | solubility kinetic [3]: 2.43 µg/mL (≈ 4.68 µM)

COc1ccc(C(=O)O)cc1NC(=O)C1=C(C)NC(Nc2nc3ccc(F)cc3o2)=NC1c1ccccc1Cl (stereo unspecified)
IC50 ([1]; read-out: IC50): 12.2 µM | half-life [2]: > 30 min | solubility kinetic [3]: 53.3 µg/mL (≈ 96.9 µM)

COC(=O)Cc1ccc(NC(=O)C2=C(C)NC(Nc3nc4ccccc4o3)=NC2c2ccccc2Cl)cc1 (stereo unspecified)
IC50 ([1]; read-out: IC50): 12.2 µM | half-life [2]: 7.46 min | solubility kinetic [3]: < 1 µg/mL

CCn1cc(CNC(=O)C2=C(C)NC(Nc3nc4ccc(F)c(N)c4o3)=NC2c2ccccc2Cl)cn1 (stereo unspecified)
IC50 ([1]; read-out: IC50): 2.17 µM | half-life [2]: 17.7 min | solubility kinetic [3]: 23.9 µg/mL (≈ 45.6 µM)

CC(C)C1=C(C(=O)Nc2nncs2)C(c2ccccc2Cl)N=C(Nc2nc3ccccc3o2)N1 (stereo unspecified)
IC50 ([1]; read-out: IC50): 15.3 µM | half-life [2]: > 30 min | solubility kinetic [3]: < 1 µg/mL

CC1=C(C(=O)Nc2cc(C(=O)O)ccn2)C(c2ccccc2Cl)N=C(Nc2nc3ccccc3o2)N1C (stereo unspecified)
IC50 ([1]; read-out: IC50): 34.4 µM | half-life [2]: > 30 min | solubility kinetic [3]: > 76 µg/mL

O/N=C1\CCCC2=C1C(c1ccccc1Cl)N=C(Nc1nc3ccccc3o1)N2 (stereo unspecified)
IC50 ([1]; read-out: IC50): 10.9 µM | half-life [2]: 5.48 min | solubility kinetic [3]: < 1 µg/mL

CC1=C(C(=O)Nc2ccccn2)C(c2ccccc2Cl)N=C(Nc2nc3ccc(F)cc3o2)N1 (stereo unspecified)
IC50 ([1]; read-out: IC50): 10.9 µM | half-life [2]: > 30 min | solubility kinetic [3]: < 1 µg/mL

CC1=C(C(=O)Nc2cc(C(=O)O)ccc2Cl)C(c2ccccc2Cl)N=C(Nc2nc3ccc(F)cc3o2)N1 (stereo unspecified)
IC50 ([1]; read-out: IC50): 19.3 µM | half-life [2]: > 30 min | solubility kinetic [3]: 54 µg/mL (≈ 97.4 µM)

COC(=O)c1csc(NC(=O)C2=C(C)NC(Nc3nc4ccccc4o3)=NC2c2ccccc2Cl)n1 (stereo unspecified)
IC50 ([1]; read-out: IC50): 13.7 µM | half-life [2]: > 30 min | solubility kinetic [3]: < 1 µg/mL

CC1=C(C(=O)Nc2cccc(CN)c2)C(c2ccccc2Cl)N=C(Nc2nc3ccccc3o2)N1 (stereo unspecified)
IC50 ([1]; read-out: IC50): 6.85 µM | half-life [2]: > 30 min | solubility kinetic [3]: 37.5 µg/mL (≈ 77 µM)

CC1=C(C(=O)Nc2nncs2)C(c2c(Br)cnn2C)N=C(Nc2nc3ccccc3o2)N1 (stereo unspecified)
IC50 [1]: Not Active | half-life [2]: > 30 min | solubility kinetic [3]: 38.7 µg/mL (≈ 75.2 µM)

CC1=C(C(=O)NCc2cnn(C)c2)C(c2ccc(C)cc2Cl)N=C(Nc2nc3cccnc3o2)N1 (stereo unspecified)
IC50 [1]: Not Active | half-life [2]: 3.66 min | solubility kinetic [3]: 4.8 µg/mL (≈ 9.78 µM)

CC1=C(S(C)(=O)=O)C(c2ccccc2Cl)N=C(Nc2nc3ccccc3o2)N1 (stereo unspecified)
IC50 ([1]; read-out: IC50): 19.3 µM | half-life [2]: 9.37 min | solubility kinetic [3]: < 1 µg/mL

CC1=C(C(=O)Nc2ccc(C(=O)N3CCOCC3)cc2)C(c2ccccc2Cl)N=C(Nc2nc3ccccc3o2)N1 (stereo unspecified)
IC50 ([1]; read-out: IC50): 21.7 µM | half-life [2]: > 30 min | solubility kinetic [3]: < 1 µg/mL

COCCNC(=O)C1CC(=O)C2=C(C1)NC(Nc1nc3ccccc3o1)=NC2c1ccccc1Cl (stereo unspecified)
IC50 ([1]; read-out: IC50): 4.85 µM | half-life [2]: 10.2 min | solubility kinetic [3]: 4.23 µg/mL (≈ 8.56 µM)

CC1=C(C(=O)Nc2nncs2)C(c2cc(Cl)ccc2Cl)N=C(Nc2nc3ccccc3o2)N1 (stereo unspecified)
IC50 ([1]; read-out: IC50): 10.9 µM | half-life [2]: > 30 min | solubility kinetic [3]: < 1 µg/mL

COC(=O)c1ccnc(NC(=O)C2=C(C)NC(Nc3nc4ccccc4o3)=N[C@H]2c2ccccc2Cl)c1
IC50 ([1]; read-out: IC50): 6.85 µM | half-life [2]: 20 min | solubility kinetic [3]: < 1 µg/mL

CC1=C(C(=O)NCc2cnn(Cc3ccccc3)c2)C(c2ccc(C)cc2Cl)N=C(Nc2nc3cccc(N)c3o2)N1 (stereo unspecified)
IC50 ([1]; read-out: IC50): 5.44 µM | half-life [2]: 6.73 min | solubility kinetic [3]: < 1 µg/mL

CC1=C(C(=O)NCc2ccc(F)cc2)C(c2ccccc2Cl)N=C(Nc2nc3ccccc3o2)N1 (stereo unspecified)
IC50 [1]: Not Active | half-life [2]: 11.3 min | solubility kinetic [3]: < 1 µg/mL
